How the values were obtained:
[1] = molecular target: T1, pSer33/S37A β-catenin peptide binding to β-TrCP (Homo sapiens, UniProt P35222+Q9Y297, S37A); experiment: TR-FRET peptide binding and cooperativity assay, pSer33/S37A peptide
T1 construct: titrating BODIPY-FL-labeled β-catenin peptides (residues 17-48) against 300 pM β-TrCP; 6xHis-SMT3 (N, cleaved yes); made in house; host or cells: E. coli (co-expressed with BirA)
Protocol: (§1) Compounds were incubated in a 20 μl reaction volume with 300 pM biotinylated β-TrCP/Skp1 preincubated with 1.2 nM terbium-coupled streptavidin (Cisbio) and BODIPY-FL labeled β-catenin peptides (see figure legends for peptide details) in a white 384-well microplate (Perkin Elmer ProxiPlate), using a PBS buffer containing 0.01% Triton X-100 and 2 mM DTT with 2% final DMSO. […] Following 1-h incubation, plates were read for TR-FRET signal after excitation at 320 nm and read at 520 and 620 nm using an EnVision plate reader (Perkin Elmer). TR-FRET signal was calculated using a 520/620 nm ratio. Binding and enhancement data were fit to a standard Hill equation (Y = Bmin + (Bmax − Bmin)(X^h)/(X^h + EC50^h)) in Prism (GraphPad). Errors are standard error of the fit.

[2] = molecular target: T2, Ser33/S37A β-catenin peptide binding to β-TrCP (Homo sapiens, UniProt P35222+Q9Y297, S37A); experiment: TR-FRET peptide binding assay, unphosphorylated Ser33/S37A peptide
T2 construct: titrating BODIPY-FL-labeled β-catenin peptides (residues 17-48) against 300 pM β-TrCP; 6xHis-SMT3 (N, cleaved yes); made in house; host or cells: E. coli (co-expressed with BirA)
T2 sequence (Q9Y297 1-569 isoform Q9Y297-2, stated change not applied): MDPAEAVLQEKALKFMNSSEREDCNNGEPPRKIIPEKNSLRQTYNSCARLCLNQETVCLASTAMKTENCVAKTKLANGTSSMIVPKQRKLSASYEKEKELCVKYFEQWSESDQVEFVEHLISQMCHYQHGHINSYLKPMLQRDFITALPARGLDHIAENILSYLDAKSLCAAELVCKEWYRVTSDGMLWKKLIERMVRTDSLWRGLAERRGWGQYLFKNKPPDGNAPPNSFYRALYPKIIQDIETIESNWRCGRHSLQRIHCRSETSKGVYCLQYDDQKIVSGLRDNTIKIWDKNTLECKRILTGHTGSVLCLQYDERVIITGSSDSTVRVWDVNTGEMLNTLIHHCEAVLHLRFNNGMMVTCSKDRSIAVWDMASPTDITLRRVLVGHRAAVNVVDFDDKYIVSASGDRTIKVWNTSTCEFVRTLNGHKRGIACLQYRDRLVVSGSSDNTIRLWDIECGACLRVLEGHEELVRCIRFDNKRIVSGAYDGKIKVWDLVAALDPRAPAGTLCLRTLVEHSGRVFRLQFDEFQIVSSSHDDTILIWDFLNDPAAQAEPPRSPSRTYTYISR
T2 sequence (P63208 whole entry partner, the tested form may be a part): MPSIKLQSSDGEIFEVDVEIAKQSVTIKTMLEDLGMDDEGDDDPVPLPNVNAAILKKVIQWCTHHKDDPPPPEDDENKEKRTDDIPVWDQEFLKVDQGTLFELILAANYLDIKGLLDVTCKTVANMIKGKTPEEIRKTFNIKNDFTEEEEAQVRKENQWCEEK
T2 sequence (P35222 17-48 S37A limits assumed): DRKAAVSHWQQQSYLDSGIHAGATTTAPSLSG
Protocol: as §1

[3] = molecular target: T3, Ser33/S37A β-catenin peptide ubiquitylation by SCFβ-TrCP (Homo sapiens, UniProt P35222+Q9Y297, S37A); experiment: In vitro ubiquitylation of Ser33/S37A β-catenin peptide; assay type: biochemical
T3 construct: Ubiquitylation of Ser33/S37A β-catenin peptide (residues 17–60) by SCF^β-TrCP; 6xHis-SMT3 (N, cleaved yes); made in house; host or cells: E. coli (β-TrCP1/Skp1); E. coli or SF9 (Cul1-Rbx1)
Protocol: (§2) Four micromolar of fluorescently-labeled β-catenin peptide (residues 17–60) were ubiquitylated in a buffer containing 25 mM Tris Cl (pH 7.5), 50 mM NaCl, 5 mM MgCl2, 2 mM ATP, and 1 mM DTT at room temperature in the presence of 62.5 μM Ubiquitin, 125 nM Ube1, 1.75 μM Cdc34A, and 100 nM neddylated SCF^β-TrCP in the presence or absence of compound (as indicated). Typically, individual reaction mixes with either Ubiquitin, Ube1 and Cdc34A or β-catenin, SCF^β-TrCP and compound were preincubated and subsequently mixed to initiate β-catenin ubiquitylation. Reactions were quenched by SDS loading buffer, resolved by SDS-PAGE and imaged for fluorescence. For full length β-catenin protein ubiquitylation 400 nM β-catenin and 400 nM SCF^β-TrCP were used instead.

[4] = molecular target: T4, full-length Ser33/S37A β-catenin protein ubiquitylation by SCFβ-TrCP (Homo sapiens, UniProt P35222+Q9Y297, S37A); experiment: In vitro ubiquitylation of full-length Ser33/S37A β-catenin protein; assay type: biochemical
T4 construct: 400 nM purified full-length S37A mutant β-catenin protein was ubiquitylated; 6xHis-SMT3 (N, cleaved yes); host or cells: HEK293T (β-catenin); E. coli (β-TrCP1/Skp1); E. coli or SF9 (Cul1-Rbx1)
T4 sequence (Q9Y297 1-569 isoform Q9Y297-2, stated change not applied): as the sequence (Q9Y297 1-569 isoform Q9Y297-2, stated change not applied) above
T4 sequence (P63208 whole entry partner): as the sequence (P63208 whole entry partner, the tested form may be a part) above
T4 sequence (Q13616 whole entry partner): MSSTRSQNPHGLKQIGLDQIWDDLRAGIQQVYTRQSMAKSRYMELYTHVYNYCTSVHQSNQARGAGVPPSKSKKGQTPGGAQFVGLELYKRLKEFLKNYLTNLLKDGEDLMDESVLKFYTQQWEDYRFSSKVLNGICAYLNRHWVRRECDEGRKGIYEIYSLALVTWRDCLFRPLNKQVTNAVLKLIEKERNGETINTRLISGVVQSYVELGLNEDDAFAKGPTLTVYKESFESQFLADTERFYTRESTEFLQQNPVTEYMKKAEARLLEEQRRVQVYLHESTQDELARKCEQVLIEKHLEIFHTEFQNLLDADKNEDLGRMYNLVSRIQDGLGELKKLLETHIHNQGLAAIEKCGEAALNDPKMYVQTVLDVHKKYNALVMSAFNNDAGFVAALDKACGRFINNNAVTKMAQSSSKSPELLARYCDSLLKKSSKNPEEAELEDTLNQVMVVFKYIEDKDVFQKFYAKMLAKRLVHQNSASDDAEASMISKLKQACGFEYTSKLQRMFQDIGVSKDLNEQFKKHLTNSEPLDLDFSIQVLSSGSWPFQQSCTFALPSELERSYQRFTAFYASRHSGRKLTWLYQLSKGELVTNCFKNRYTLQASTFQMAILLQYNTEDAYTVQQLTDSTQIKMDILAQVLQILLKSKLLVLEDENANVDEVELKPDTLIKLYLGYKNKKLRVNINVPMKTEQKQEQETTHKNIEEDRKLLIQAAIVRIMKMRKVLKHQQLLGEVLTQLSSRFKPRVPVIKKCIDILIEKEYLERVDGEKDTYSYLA
T4 sequence (P62877 whole entry partner): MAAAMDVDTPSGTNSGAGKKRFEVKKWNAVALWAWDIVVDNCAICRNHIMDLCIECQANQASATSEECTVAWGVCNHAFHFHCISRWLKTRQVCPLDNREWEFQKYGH
T4 sequence (Q15843 1-76 partner limits assumed): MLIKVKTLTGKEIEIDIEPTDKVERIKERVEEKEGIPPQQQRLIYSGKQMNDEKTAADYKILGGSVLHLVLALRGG
T4 sequence (P35222 whole entry S37A): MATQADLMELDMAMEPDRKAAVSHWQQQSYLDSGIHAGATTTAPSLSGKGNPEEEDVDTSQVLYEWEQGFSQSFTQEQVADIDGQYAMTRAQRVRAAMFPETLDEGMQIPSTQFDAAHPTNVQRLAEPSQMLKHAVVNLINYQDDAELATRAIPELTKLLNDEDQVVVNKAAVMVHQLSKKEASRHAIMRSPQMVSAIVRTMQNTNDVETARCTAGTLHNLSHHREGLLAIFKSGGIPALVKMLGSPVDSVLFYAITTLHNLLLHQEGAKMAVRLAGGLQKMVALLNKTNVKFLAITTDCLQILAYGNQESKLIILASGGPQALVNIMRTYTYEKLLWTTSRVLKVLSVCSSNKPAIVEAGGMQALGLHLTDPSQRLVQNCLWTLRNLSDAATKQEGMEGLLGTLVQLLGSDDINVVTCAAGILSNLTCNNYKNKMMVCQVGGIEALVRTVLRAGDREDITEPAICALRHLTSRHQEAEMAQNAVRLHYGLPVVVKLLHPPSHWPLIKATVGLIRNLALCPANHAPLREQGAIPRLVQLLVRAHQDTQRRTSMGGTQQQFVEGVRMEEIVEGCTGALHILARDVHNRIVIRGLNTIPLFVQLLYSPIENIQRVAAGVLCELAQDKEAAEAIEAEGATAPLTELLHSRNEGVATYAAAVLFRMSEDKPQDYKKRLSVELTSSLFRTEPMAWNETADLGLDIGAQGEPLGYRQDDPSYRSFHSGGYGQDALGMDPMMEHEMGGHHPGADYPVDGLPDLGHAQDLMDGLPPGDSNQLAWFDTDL
Protocol: as §2

[5] = molecular target: T5, full-length S33E/S37A β-catenin protein ubiquitylation by SCFβ-TrCP (Homo sapiens, UniProt P35222+Q9Y297, S33E/S37A); experiment: In vitro ubiquitylation of full-length S33E/S37A β-catenin protein; assay type: biochemical
T5 construct: 6xHis-SMT3 (N, cleaved yes); host or cells: HEK293T (β-catenin); E. coli (β-TrCP1/Skp1); E. coli or SF9 (Cul1-Rbx1)
Protocol: as §2

[6] = molecular target: T6, S33E/S37A mutant β-catenin (Homo sapiens, UniProt P35222+Q9Y297, S33E/S37A); experiment: β-catenin degradation in HEK293T cells stably expressing S33E/S37A β-catenin; assay type: cell-based; conditions: HEK293T stable line, 6 h, western
T6 construct: Full-length β-catenin (Myc/FLAG-tagged; Origene); expressed in transfected cells
Protocol: HEK293T cells were plated in a 10 cm dish in regular growth media (DMEM + 10% FBS) and allowed to adhere to the plate overnight. The following day, cells were transfected with S33E/S37 β-catenin using FuGeneHD transfection reagent. Transfected cells were then selected with media containing 700 μg/ml Geneticin. A pooled population of selected cells were used for all described experiments.
HEK293T cells expressing S33E/S37A β-catenin were plated in six-well plates at a density of 9 × 10^5 cells/well. The following day, cells were incubated with compounds diluted in regular growth media to the appropriate concentration. The final concentration of DMSO for all cell treatments was kept at 0.5% or less. Cell treatments with the Nedd8 inhibitor (MLN4924) and the proteasome inhibitor (MG132) were performed at a final concentration of 5 μM and 10 μM respectively. Cycloheximide treatment was performed at a final concentration of 100 μg/ml.

[7] = molecular target: T7, endogenous S37A mutant β-catenin (Homo sapiens, UniProt P35222+Q9Y297, S37A); experiment: Degradation of endogenous S37A β-catenin in TOV-112D cells; assay type: cell-based
T7 construct: host or cells: TOV-112D

[8] = molecular target: T8, S33E/S37A β-catenin:β-TrCP interaction (Homo sapiens, UniProt P35222+Q9Y297, S33E/S37A); experiment: Pull down from HEK293T cells treated with compound; assay type: cell-based; conditions: 50 μM, 6 h
T8 construct: a ternary complex with the full-length S33E/S37A β-catenin and β-TrCP in cells; evaluated for their ability to pull down endogenous β-TrCP; expressed in transfected cells; host or cells: HEK293T (transient, FuGeneHD); β-TrCP endogenous
T8 sequence (P35222 whole entry S33E/S37A): as the sequence (P35222 whole entry S37A) above, with S33E counted along it
T8 sequence (Q9Y297 whole entry, stated change not applied): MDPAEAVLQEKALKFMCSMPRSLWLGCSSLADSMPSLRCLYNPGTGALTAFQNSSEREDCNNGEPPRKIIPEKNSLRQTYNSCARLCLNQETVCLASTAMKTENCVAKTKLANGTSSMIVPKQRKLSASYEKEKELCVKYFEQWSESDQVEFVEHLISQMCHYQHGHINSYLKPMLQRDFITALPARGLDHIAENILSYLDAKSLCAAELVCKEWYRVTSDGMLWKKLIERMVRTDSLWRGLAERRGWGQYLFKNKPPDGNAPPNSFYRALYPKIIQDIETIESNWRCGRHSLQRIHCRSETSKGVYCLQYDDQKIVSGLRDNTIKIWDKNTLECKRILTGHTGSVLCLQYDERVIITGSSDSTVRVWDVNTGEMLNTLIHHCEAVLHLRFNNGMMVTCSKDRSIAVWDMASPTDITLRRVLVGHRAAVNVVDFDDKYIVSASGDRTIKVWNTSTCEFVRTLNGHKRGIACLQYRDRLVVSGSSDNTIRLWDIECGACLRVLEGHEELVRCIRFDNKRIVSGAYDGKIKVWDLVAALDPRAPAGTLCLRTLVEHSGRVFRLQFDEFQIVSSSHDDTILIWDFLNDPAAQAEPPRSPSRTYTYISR
T8 sequence (P63208 whole entry partner): as the sequence (P63208 whole entry partner, the tested form may be a part) above
Protocol: Pull down from cells treated with compound: HEK293T cells were plated in 10 cm dishes at a density of 1.2 × 10^6 cells per plate. Cells were transfected 24 h later with 2.5 µg of a WT or S33E/S37A Myc/FLAG-tagged β-catenin expression construct using the transfection reagent FuGeneHD. […] Cells were then liberated from 10 cm dishes using a cell scraper, pelleted, washed with PBS, resuspended in an equal volume of hypotonic lysis buffer (20 mM HEPES 7.5, 5 mM KCl, 1.5 mM MgCl2, 2 mM DTT, 0.01% TX-100, protease and phosphatase inhibitors, 1% DMSO), and sheered by eight passages through 21 G and 25 G needles. Samples were then supplemented up to 150 mM NaCl and clarified by centrifugation. Thirty microliters of each lysate was incubated over 10 µL of anti-c-myc magnetic beads (Pierce, Catalog #PI88842) and incubated at room temp with rotation for 30 min. Beads were pelleted, washed twice with lysis buffer, and resuspended in SDS loading buffer. Samples were analyzed by western blot.

SMILES: N#Cc1cccc2c1CN(C(=O)c1c(Sc3c(Cl)cccc3Cl)cc(C(F)(F)F)[nH]c1=O)C2 [NRX-252114]
- cooperativity of peptide binding to β-TrCP [1]: > 1500 fold
- enhancement in PPI binding affinity ([2]; 20 μM NRX-252114): > 500 fold
- Kd ([2]; read-out: binding affinity of non-phosphorylated peptide): 0.18 µM
- ubiquitylation of unphosphorylated Ser33/S37A β-catenin peptides [3]: potentiates the ubiquitylation
- ubiquitylation of full-length Ser33/S37A β-catenin, comparison of enhancers [4]: higher degree of ubiquitylation than NRX-103094
- level of ubiquitylation of full-length Ser33/S37A β-catenin ([4]; 40 μM compound): approaches that of WT full-length protein
- ligand concentration at which ubiquitin chain formation resembles WT β-catenin protein [5]: ≥ 10 µM
- enhancement of ubiquitylation of S33E/S37A β-catenin protein ([5]; varying concentration): markedly enhances
- concentration at which degradation of S33E/S37A mutant β-catenin starts [6]: ~ 50 μM
- degradation of endogenous S37A mutant β-catenin [7]: did not induce degradation
- S33E/S37A β-catenin:β-TrCP interaction in transfected cells [8]: robust S33E/S37A β-catenin:β-TrCP interaction

Source: paper PMC6441019, “Prospective discovery of small molecule enhancers of an E3 ligase-substrate interaction” (Nature Communications, 2019)
